Source: ChEMBL document CHEMBL5104172, “Design, synthesis, and antibacterial activity of derivatives of Tryptophanyl-tRNA synthetase inhibitor indolmycin” (Eur J Med Chem, 2022)
≈ marks a conversion by molar mass, not a printed value.

Key:
Staphylococcus aureus [1] = assay: Antibacterial activity against Staphylococcus aureus ATCC 29213 measured by liquid dilution method; type: functional
Staphylococcus aureus [2] = assay: Antibacterial activity against methicillin-resistant Staphylococcus aureus MRSA17-1 measured by liquid dilution method; type: functional
Staphylococcus aureus [3] = assay: Antibacterial activity against methicillin-resistant Staphylococcus aureus MRSA17-2 measured by liquid dilution method; type: functional
Staphylococcus aureus [4] = assay: Antibacterial activity against methicillin-resistant Staphylococcus aureus MRSA17-3 measured by liquid dilution method; type: functional
Staphylococcus aureus [5] = assay: Antibacterial activity against methicillin-resistant Staphylococcus aureus MRSA17-5 measured by liquid dilution method; type: functional
Staphylococcus aureus [6] = assay: Antibacterial activity against methicillin-resistant Staphylococcus aureus MRSA17-6 measured by liquid dilution method; type: functional
Staphylococcus aureus [7] = assay: Antibacterial activity against methicillin-resistant Staphylococcus aureus ATCC 33591 measured by liquid dilution method; type: functional
Staphylococcus aureus [8] = assay: Antibacterial activity against methicillin-resistant Staphylococcus aureus ATCC 43300 measured by liquid dilution method; type: functional
Staphylococcus aureus [9] = assay: Antibacterial activity against vancomycin-intermediate Staphylococcus aureus ATCC 700699 measured by liquid dilution method; type: functional
Staphylococcus aureus [10] = assay: Antibacterial activity against vancomycin-intermediate Staphylococcus aureus ATCC 700788 measured by liquid dilution method; type: functional
Staphylococcus aureus [11] = assay: Antibacterial activity against methicillin-sensitive Staphylococcus aureus MSSA17-1 measured by liquid dilution method; type: functional
Staphylococcus aureus [12] = assay: Antibacterial activity against methicillin-sensitive Staphylococcus aureus MSSA17-2 measured by liquid dilution method; type: functional
Staphylococcus aureus [13] = assay: Antibacterial activity against methicillin-sensitive Staphylococcus aureus MSSA17-3 measured by liquid dilution method; type: functional
[14] = system: Staphylococcus epidermidis; assay: Antibacterial activity against methicillin-resistant Staphylococcus epidermidis MRSE17-1 measured by liquid dilution method; type: functional
[15] = system: Staphylococcus epidermidis; assay: Antibacterial activity against methicillin-resistant Staphylococcus epidermidis MRSE17-2 measured by liquid dilution method; type: functional
[16] = system: Staphylococcus epidermidis; assay: Antibacterial activity against methicillin-resistant Staphylococcus epidermidis MRSE17-3 measured by liquid dilution method; type: functional
[17] = system: Staphylococcus epidermidis; assay: Antibacterial activity against methicillin-resistant Staphylococcus epidermidis MRSE17-4 measured by liquid dilution method; type: functional
[18] = system: Staphylococcus epidermidis; assay: Antibacterial activity against methicillin-resistant Staphylococcus epidermidis MRSE17-6 measured by liquid dilution method; type: functional
[19] = system: Staphylococcus epidermidis; assay: Antibacterial activity against methicillin-sensitive Staphylococcus epidermidis MSSE17-1 measured by liquid dilution method; type: functional
[20] = system: Staphylococcus epidermidis; assay: Antibacterial activity against methicillin-sensitive Staphylococcus epidermidis MSSE17-2 measured by liquid dilution method; type: functional
[21] = system: Staphylococcus epidermidis; assay: Antibacterial activity against methicillin-sensitive Staphylococcus epidermidis MSSE17-3 measured by liquid dilution method; type: functional
Enterococcus faecalis [22] = assay: Antibacterial activity against Enterococcus faecalis EFA17-1 measured by liquid dilution method; type: functional
Enterococcus faecalis [23] = assay: Antibacterial activity against Enterococcus faecalis ATCC 29212 measured by liquid dilution method; type: functional
Enterococcus faecium [24] = assay: Antibacterial activity against Enterococcus faecium EFM17-1 measured by liquid dilution method; type: functional
Enterococcus faecium [25] = assay: Antibacterial activity against Enterococcus faecium EFM17-2 measured by liquid dilution method; type: functional
[26] = Plasma protein binding in CD-1 mouse plasma incubated for 4 hrs and assessed as unbound fraction at 2 uM measured by LC/MS/MS analysis; type: ADME, cell-free
[27] = Plasma protein binding in CD-1 mouse plasma incubated for 4 hrs at 2 uM measured by LC/MS/MS analysis; type: ADME, cell-free; conditions: read-out: PPB (converted)
Staphylococcus aureus [28] = assay: Antibacterial activity against vancomycin-intermediate Staphylococcus aureus measured by liquid dilution method; type: functional
Helicobacter pylori = assay: Antibacterial activity against Helicobacter pylori measured by liquid dilution method; type: functional
[29] = Stability in CD-1 mouse whole blood assessed as compound remaining at 2 uM and measured at 10 mins LC-MS/MS analysis; type: ADME, tissue-based; conditions: read-out: Stability
[30] = Stability in CD-1 mouse whole blood assessed as compound remaining at 2 uM and measured at 30 mins LC-MS/MS analysis; type: ADME, tissue-based; conditions: read-out: Stability
[31] = Stability in CD-1 mouse whole blood assessed as compound remaining at 2 uM and measured at 60 mins LC-MS/MS analysis; type: ADME, tissue-based; conditions: read-out: Stability
[32] = Stability in CD-1 mouse whole blood assessed as compound remaining at 2 uM and measured at 120 mins LC-MS/MS analysis; type: ADME, tissue-based; conditions: read-out: Stability

Row | Compound | MIC (Staphylococcus aureus [1]) [µg/mL] | MIC (Staphylococcus aureus [2]) [µg/mL] | MIC (Staphylococcus aureus [3]) [µg/mL] | MIC (Staphylococcus aureus [4]) [µg/mL] | MIC (Staphylococcus aureus [5]) [µg/mL] | MIC (Staphylococcus aureus [6]) [µg/mL] | MIC (Staphylococcus aureus [7]) [µg/mL] | MIC (Staphylococcus aureus [8]) [µg/mL] | MIC (Staphylococcus aureus [9]) [µg/mL] | MIC (Staphylococcus aureus [10]) [µg/mL] | MIC (Staphylococcus aureus [11]) [µg/mL] | MIC (Staphylococcus aureus [12]) [µg/mL] | MIC (Staphylococcus aureus [13]) [µg/mL] | MIC [14] [µg/mL] | MIC [15] [µg/mL] | MIC [16] [µg/mL] | MIC [17] [µg/mL] | MIC [18] [µg/mL] | MIC [19] [µg/mL] | MIC [20] [µg/mL] | also measured
1 | CNC1=NC(=O)[C@H]([C@H](C)c2c[nH]c3cccc(C)c23)O1 | 1 (≈ 3.69 µM) | 0.5 (≈ 1.84 µM) | 0.5 (≈ 1.84 µM) | 0.5 (≈ 1.84 µM) | 1 (≈ 3.69 µM) | 0.5 (≈ 1.84 µM) | 1 (≈ 3.69 µM) | 0.5 (≈ 1.84 µM) | 0.5 (≈ 1.84 µM) | 0.5 (≈ 1.84 µM) | 1 (≈ 3.69 µM) | 1 (≈ 3.69 µM) | 0.5 (≈ 1.84 µM) | 0.5 (≈ 1.84 µM) | 0.5 (≈ 1.84 µM) | 0.125 (≈ 0.461 µM) | 0.5 (≈ 1.84 µM) | 0.5 (≈ 1.84 µM) | 0.125 (≈ 0.461 µM) | 0.25 (≈ 0.921 µM) | MIC [21]: 0.25 µg/mL (≈ 0.921 µM); MIC (Enterococcus faecalis [22]): > 128 µg/mL; MIC (Enterococcus faecalis [23]): > 128 µg/mL; MIC (Enterococcus faecium [24]): > 128 µg/mL; MIC (Enterococcus faecium [25]): > 128 µg/mL; fraction unbound at 4 h, 2 µM [26]: 0.276; fraction unbound at 4 h, 2 µM [27]: 0.276
2 | CNC1=NC(=O)[C@H]([C@H](C)c2c[nH]c3cccc(F)c23)O1 | 1 (≈ 3.63 µM) | 0.5 (≈ 1.82 µM) | 1 (≈ 3.63 µM) | 0.5 (≈ 1.82 µM) | 1 (≈ 3.63 µM) | 0.5 (≈ 1.82 µM) | 1 (≈ 3.63 µM) | 1 (≈ 3.63 µM) | 0.5 (≈ 1.82 µM) | 0.5 (≈ 1.82 µM) | 1 (≈ 3.63 µM) | 1 (≈ 3.63 µM) | 0.5 (≈ 1.82 µM) | 2 (≈ 7.27 µM) | 1 (≈ 3.63 µM) | 0.5 (≈ 1.82 µM) | 1 (≈ 3.63 µM) | 1 (≈ 3.63 µM) | 0.5 (≈ 1.82 µM) | 1 (≈ 3.63 µM) | MIC [21]: 1 µg/mL (≈ 3.63 µM); MIC (Enterococcus faecalis [22]): > 128 µg/mL; MIC (Enterococcus faecalis [23]): > 128 µg/mL; MIC (Enterococcus faecium [24]): > 128 µg/mL; MIC (Enterococcus faecium [25]): > 128 µg/mL; fraction unbound at 4 h, 2 µM [26]: 0.2; fraction unbound at 4 h, 2 µM [27]: 0.2
3 | CNC1=NC(=O)[C@H]([C@H](C)c2c[nH]c3cccc(Cl)c23)O1 | 2 (≈ 6.86 µM) | 1 (≈ 3.43 µM) | 1 (≈ 3.43 µM) | 0.5 (≈ 1.71 µM) | 1 (≈ 3.43 µM) | 1 (≈ 3.43 µM) | 2 (≈ 6.86 µM) | 1 (≈ 3.43 µM) | 0.5 (≈ 1.71 µM) | 1 (≈ 3.43 µM) | 1 (≈ 3.43 µM) | 1 (≈ 3.43 µM) | 0.5 (≈ 1.71 µM) | 1 (≈ 3.43 µM) | 0.5 (≈ 1.71 µM) | 0.25 (≈ 0.857 µM) | 1 (≈ 3.43 µM) | 1 (≈ 3.43 µM) | 0.25 (≈ 0.857 µM) | 0.5 (≈ 1.71 µM) | MIC [21]: 0.5 µg/mL (≈ 1.71 µM); MIC (Enterococcus faecalis [22]): > 128 µg/mL; MIC (Enterococcus faecalis [23]): > 128 µg/mL; MIC (Enterococcus faecium [24]): > 128 µg/mL; MIC (Enterococcus faecium [25]): > 128 µg/mL; fraction unbound at 4 h, 2 µM [26]: 0.134; fraction unbound at 4 h, 2 µM [27]: 0.134
4 | CNC1=NC(=O)[C@H]([C@H](C)c2c[nH]c3ccccc23)O1 [INDOMYCIN] | 0.5 (≈ 1.94 µM) | 0.5 (≈ 1.94 µM) | 0.5 (≈ 1.94 µM) | 0.25 (≈ 0.972 µM) | 0.5 (≈ 1.94 µM) | 0.25 (≈ 0.972 µM) | 1 (≈ 3.89 µM) | 0.25 (≈ 0.972 µM) | 0.125 (≈ 0.486 µM) | 0.25 (≈ 0.972 µM) | 0.5 (≈ 1.94 µM) | 0.5 (≈ 1.94 µM) | 0.25 (≈ 0.972 µM) | 1 (≈ 3.89 µM) | 1 (≈ 3.89 µM) | 0.25 (≈ 0.972 µM) | 1 (≈ 3.89 µM) | 1 (≈ 3.89 µM) | 0.25 (≈ 0.972 µM) | 0.5 (≈ 1.94 µM) | MIC (Staphylococcus aureus [28]): 0.125 µg/mL (≈ 0.486 µM); MIC90 (Helicobacter pylori): 0.031 µg/mL (≈ 0.12 µM); MIC [21]: 0.5 µg/mL (≈ 1.94 µM); MIC (Enterococcus faecalis [22]): > 128 µg/mL; MIC (Enterococcus faecalis [23]): > 128 µg/mL; MIC (Enterococcus faecium [24]): > 128 µg/mL; MIC (Enterococcus faecium [25]): > 128 µg/mL; fraction unbound at 4 h, 2 µM [26]: 0.441; fraction unbound at 4 h, 2 µM [27]: 0.441
5 | CC(C)[N+](C)(CCOC(=O)C1c2ccccc2Oc2ccccc21)C(C)C [PROPANTHELINE BROMIDE] | – | – | – | – | – | – | – | – | – | – | – | – | – | – | – | – | – | – | – | – | remaining at 10 min, 2 µM [29]: 93.5%; remaining at 0.5 h, 2 µM [30]: 82.9%; remaining at 1 h, 2 µM [31]: 64.7%; remaining at 2 h, 2 µM [32]: 38.3%
